Data published in patent US20240197890A1, “FLAVONE DERIVATIVES AND USES IN TARGETING CK2-MEDIATED DISEASES AND CONDITIONS” (Salk Institute for Biological Studies, priority 2020, published 2024).

Experiments:
AKT pS129 = AKT pS129 levels in IL1β-stimulated primary astrocytes; type: cell-based; settings: IL1-β for 5 h
Text: AKT pS129 is a known direct CK2 substrate.

LC3-II = LC3-II in AD patient-derived induced neurons; type: cell-based, human; settings: 24 h
Method: (§1) Western blotting. For drug treatment assays, cells were treated with vehicle (DMSO) or 20 μM compound and stimulated with IL1-B 10 ng/mL for 1 h, 6 h, or 24 h. Cells were dissociated with 1:1 Accutase:papain for 3 min at rt, pelleted for 5 min at 800 g, and washed twice with cold DPBS. Pellets were lysed with RIPA buffer (Sigma R0278) supplemented with Halt protease inhibitor cocktail (Thermo Fisher 78445) and clarified by centrifugation (16,000 g, 10 min, 4° C.). Protein concentration was determined by BCA assay (Thermo Fisher). Proteins were denatured in 1×LDS Buffer and 2.5% beta-mercaptoethanol (X) for 10 min at 70° C., separated on Bolt 4-12% Bis-Tris Plus polyacrylamide gels (Thermo Fisher), transferred to PVDF membranes using the iBlot 2 Dry Blotting System, and blocked with 0.1% casein-PBS (Bio-Rad) for 1 h at room temperature. The blots were incubated with primary antibodies overnight at 4° C. in PBS containing 0.1% casein and 0.2% Tween-20. […] The blots were imaged using the Odyssey CLx imaging system and blots were analyzed on the ImageStudio software (LI-COR).

NF-κB pS529 = assay: Immunofluorescence of NF-κB and NF-κB pS529 in activated astrocytes; type: cell-based, human; settings: after 1 h
Method: Immunotluorescence. […] After treatment, cells were fixed with 4% paraformaldehyde solution for 20 min at room temperature and washed 3× with DPBS for 10 min each. The cells were permeabilized using 5% horse serum and 10% Triton X in DPBS for 15 min at room temperature and blocked with 5% horse serum in PBS for 30 min at room temperature. Cells were incubated with primary antibodies in blocking buffer either overnight at 4° C. or for 2 hours at room temperature. After incubation, cells were washed 3× with PBS, blocked using 5% horse serum in PBS for 30 min at room temperature, and incubated with Cy3 red-labeled or AF488 green-labeled secondary antibodies diluted in blocking buffer for 1 hour at room temperature. The cells were washed once with PBS for 10 min, then counter-stained with DAPI. The cells were washed 3× with PBS and mounted with glass coverslips and Immu-Mount solution. Images were obtained with the Zeiss fluorescent microscope. The following primary antibodies were used: rabbit anti-NF-κB (1:400; CST), mouse anti-phospho NF-κB S529 (20 ug/ml; Thermo Fisher), rabbit anti-CK2A1 (1:500; Bethyl), mouse anti-IKb alpha (1:400; CST), mouse anti-phospho IKb alpha (1:50; Santa Cruz), rabbit anti-phospho CK2A1 (1:25; Thermo Fisher), rabbit anti-phospho Cdc37 (1:50; Novus), mouse anti-phospho NF-κB S529 (1:25; R&D), rabbit anti-Cdc37 (1:100; CST), mouse anti-SQSTM1 (1:50; Santa Cruz), anti rabbit-phospho NF-κB S536 (1:1600; CST), anti rabbit-Akt (pan) (1:400; CST), anti mouse-phospho Akt S473 (1:500; Sigma).
To investigate the potential effects of CK2 activity on NF-κB, NF-κB and NF-κB pS529 were measured by immunofluorescence in activated astrocytes. […] At this timepoint, NF-κB pS529 levels were similar across all treatments, possibly as a result of slower turnover by pNF-κB species.

HMGB1 = HMGB1 secretion in AD patient iPSC-derived astrocytes (Western blot); type: cell-based, human
Method: as §1
To further investigate this CK2 dysregulation in an in vitro AD model, iPSC-derived astrocytes were generated from a cohort of 6 AD patients and 5 age-matched controls. […] HMGB1 was detected in media from AD astrocytes in the absence of inflammatory stimuli (FIG. 12C). […]

IL6 expression = IL6 expression in AD patient iPSC-derived astrocytes after IL1-β stimulation (qRT-PCR); type: cell-based, human; settings: controls and AD astrocytes

COc1cc(-c2cc(=O)c3c(O)cc(O)cc3o2)ccc1O [CHR, chrysoeriol]
AKT pS129 levels (AKT pS129): reduced
LC3-II (marker of autophagy/mitophagy) (LC3-II): increased
IL1-β-induced increase of NF-κB nuclear intensity (NF-κB pS529): blocked
HMGB1 secretion (HMGB1): reduced
IL6 expression after IL1-β stimulation (IL6 expression): reduced
